# Laboratory results: patent US6583179B2, “Substituted aminoalkylamide derivatives as antagonists of follicle stimulating hormone” (Ortho-McNeil Pharmaceutical, Inc., priority 1999, dated 2003)
# Target: T1, human FSH receptor (Homo sapiens, UniProt P23945)
# T1 construct: expressed in transfected cells; host or cells: Chinese Hamster Ovary cells (K-1; ATCC), line rhFSHR-cLUC
# T1 sequence (P23945 18-695): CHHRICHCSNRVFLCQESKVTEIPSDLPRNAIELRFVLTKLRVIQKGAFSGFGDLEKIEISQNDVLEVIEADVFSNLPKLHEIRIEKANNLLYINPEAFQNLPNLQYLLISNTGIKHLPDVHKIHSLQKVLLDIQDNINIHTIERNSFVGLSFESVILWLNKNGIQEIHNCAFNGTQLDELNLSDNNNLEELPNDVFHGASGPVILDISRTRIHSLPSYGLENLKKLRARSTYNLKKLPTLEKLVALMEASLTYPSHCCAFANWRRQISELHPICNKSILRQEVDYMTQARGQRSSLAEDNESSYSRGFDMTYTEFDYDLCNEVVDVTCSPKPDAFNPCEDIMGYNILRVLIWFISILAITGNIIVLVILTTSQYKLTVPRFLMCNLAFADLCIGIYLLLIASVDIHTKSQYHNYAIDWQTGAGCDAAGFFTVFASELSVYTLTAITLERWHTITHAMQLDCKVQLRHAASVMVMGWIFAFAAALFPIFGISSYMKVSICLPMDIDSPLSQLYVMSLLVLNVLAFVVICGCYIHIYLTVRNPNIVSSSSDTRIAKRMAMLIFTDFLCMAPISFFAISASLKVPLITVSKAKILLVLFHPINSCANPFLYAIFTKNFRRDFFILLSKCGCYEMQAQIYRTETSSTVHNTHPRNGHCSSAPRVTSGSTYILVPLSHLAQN
# Experiment: hFSHR CHO cAMP assay (rhFSHR-cLUC cells, FSH-stimulated cAMP, radioimmunoassay)
# Format: cell-based
# Settings: inhibition of cAMP produced by EC70 dose of FSH (4.85 nM); maximum concentration 50 μM
# Description: Minimum Essential Medium-Alpha (MEM-alpha), fetal bovine serum (FBS), penicillin, streptomycin, geneticin, trypsin-EDTA, Hanks' Balanced Salt Solution (no Calcium chloride, Magnesium chloride, Magnesium sulfate, or phenol red; Ca-Mg free HBSS) were purchased from Gibco BRL (Gaithersburg, Md.). The cells used for the FSH bioassay (rhFSHR-cLUC) were Chinese Hamster Ovary cells (K-1; ATCC) stably transformed with human FSH receptor (pSVK-FSHr) and a cAMP luciferase reporter gene (responsive CGα-180LUC). Follicle Stimulating Hormone (Metrodin; Fertinex) was purchased from Serono, Ltd. (Norwell, Mass.).
# The rhFSHR-cLUC cell cultures were maintained in MEM-Alpha supplemented with 10% heat-inactivated FBS (HIFBS), 100 U/ml penicillin, 100 μg/mL streptomycin, and included 0.1 g/L geneticin for stable cell selection.
# Forty-eight hours after the cells were plated in sterile 96-well culture plates (Corning, Corning, N.Y.) the spent media was removed and 50 μl assay media (modified growth media with 2% HIFBS) containing 2 mM IBMX (3-isobutyl-1-methyl-xanthine) was added to the cells. Compounds (25 μl) in the appropriate concentration were added followed 5 minutes later by an EC70 dose of FSH (25 μl; 160 ng/ml; 4.85 nM). After 10 minutes @ 22.5° C. (room temperature) the reaction was terminated by addition of 25 μL 0.5 N hydrochloric acid to each well. The amount of cAMP produced was measured by radioimmunoassay in a FlashPlate (DuPont, Boston, Mass.). To each flash plate 60 μL flash plate buffer was added followed by 40 μL acidified cell sample or cAMP standard, followed with the addition of 100 μl ^125l-cAMP trace. The FlashPlates were sealed, incubated overnight @ room temperature, and counted in a Packard TopCount (Packard Instrument Co., Meriden, Conn.). The cAMP radioimmunoassay results were calculated using DPM conversion and log-logit transformation of % binding (Excel program).
# Test compounds were solubilized in 30% dimethyl sulfoxide (DMSO) at a concentration of 10 mM before diluting to appropriate concentrations in assay medium. The final DMSO concentration in the treated cells and in the control cells was 0.75%.
# For individual experiments, a set of samples were tested including a vehicle control (assay buffer), a reference compound (hFSH) at a range of concentrations designed to elicit a minimal to maximal response, and several concentrations of test compounds together with an EC70 concentration of standard (hFSH challenge). Each compound was performed in duplicates for the primary evaluation and quadruplicates for the dose-ranging experiments. The cAMP radioimmunoassay raw data (pmol) were calculated to provide average pmol cAMP produced/ml and the percent inhibition was calculated as shown below.
# % Inh=[1−(Avg.pmoltest compound+standard)/(Avg.pmolstandard)]×100
# EC50 values were calculated from an analysis of the concentration-inhibition data using a linear analysis of the data transformed to a log-logit format.
row,SMILES,EC50
1,COc1ccccc1CCN(CC(=O)N1CCNCC1)S(=O)(=O)c1ccc(-c2ccccc2C)cc1 [Compound 151],9790 nM
2,COc1ccccc1CN(CC(=O)N1CCNCC1)S(=O)(=O)c1ccc(-c2ccccc2C)cc1 [Compound 174],≥ 50000 nM
3,COc1ccccc1CCN(CC(=O)NCc1ccc(CN)cc1)S(=O)(=O)c1ccccc1-c1ccccc1C [Compound 218],1200 nM
4,COc1ccccc1CCN(CC(=O)NCc1ccc(CN)cc1)S(=O)(=O)c1ccc(-c2cccs2)cc1 [Compound 245],5630 nM
5,Cc1ccccc1-c1ccc(S(=O)(=O)N(CC(=O)NCc2ccc(CN)cc2)C2CC2c2ccccc2)cc1 (stereo not drawn) [Compound 320],2570 nM
6,C[C@@H](CN(CC(=O)NCCCCCN)S(=O)(=O)c1ccc(-c2ccccc2Cl)cc1)c1ccccc1 [Compound 379],≥ 50000 nM
7,C[C@@H](CN(CC(=O)NCCCCCN)S(=O)(=O)c1ccc(-c2cccc(F)c2)cc1)c1ccccc1 [Compound 380],1200 nM
8,C[C@H](CN(CC(=O)NCCCCCCN)S(=O)(=O)c1ccc(-c2cccc(F)c2)cc1)c1ccccc1 [Compound 401],1360 nM
9,C[C@@H](CN(CC(=O)NCc1ccc(CN(C)C)cc1)S(=O)(=O)c1ccc(-c2ccccc2Cl)cc1)c1ccccc1 [Compound 471],50000 nM
10,CCN(CC)Cc1ccc(CNC(=O)CN(CC(C)c2ccccc2)S(=O)(=O)c2ccc(-c3ccccc3Cl)cc2)cc1 (stereo not drawn) [Compound 472],> 50000 nM
11,CC(=O)NCc1ccc(CNC(=O)CN(C[C@H](C)c2ccccc2)S(=O)(=O)c2ccc(-c3ccccc3Cl)cc2)cc1 [Compound 473],> 50000 nM
12,Cc1ccccc1-c1ccc(S(=O)(=O)N(CC(=O)NCc2ccc(CN(C)C)cc2)C[C@@H](C)c2ccccc2)cc1 [Compound 474],> 50000 nM
13,CCN(CC)Cc1ccc(CNC(=O)CN(C[C@@H](C)c2ccccc2)S(=O)(=O)c2ccc(-c3ccccc3C)cc2)cc1 [Compound 475],9460 nM
14,CC(=O)NCc1ccc(CNC(=O)CN(CC(C)c2ccccc2)S(=O)(=O)c2ccc(-c3ccccc3C)cc2)cc1 (stereo not drawn) [Compound 476],≥ 50000 nM
15,C[C@H](CN(CC(=O)NCc1ccc(CN)cc1)C(=O)c1ccc(-c2ccccc2Cl)cc1)c1ccccc1 [Compound 477],7700 nM
16,CC(CN(CC(=O)NC1CCC(CC2CCC(N)CC2)CC1)S(=O)(=O)c1ccc(-c2ccccc2Cl)cc1)c1ccccc1 (stereo not drawn) [Compound 497],4040 nM
17,C[C@@H](CN(CC(=O)NCc1ccc(CN)cc1)S(=O)(=O)c1ccc(C(C)(C)C)cc1)c1ccccc1 [Compound 555],1930 nM
18,C[C@@H](CN(CC(=O)NCc1ccc(CN)cc1)C(=O)Nc1ccc(-c2ccccc2)cc1)c1ccccc1 [Compound 590],2600 nM

# The next lines start with the values.
row,EC50,SMILES
1,70 nM,C[C@H](CN(CC(=O)NCc1ccc(CN)cc1)S(=O)(=O)c1ccc(-c2cccc(F)c2)cc1)c1ccccc1 [Compound 213]
2,50 nM,Cc1ccccc1-c1ccc(S(=O)(=O)N(CC(=O)NCc2ccc(CN)cc2)CC(C)c2ccccc2)cc1 (stereo not drawn) [Compound 311]
3,980 nM,COc1ccccc1CCN(CC(=O)NCC1CCCC(CN)C1)S(=O)(=O)c1ccc(-c2ccccc2C)cc1 (stereo not drawn) [Compound 336]
4,310 nM,COc1ccccc1CCN(CC(=O)NCC1CCCC(CN)C1)S(=O)(=O)c1ccc(-c2ccccc2Cl)cc1 (stereo not drawn) [Compound 337]
5,440 nM,COc1ccccc1CCN(CC(=O)NCC1CCCC(CN)C1)S(=O)(=O)c1ccc(-c2ccccc2OC)cc1 (stereo not drawn) [Compound 338]
6,1100 nM,COc1ccccc1CCN(CC(=O)NCC1CCCC(CN)C1)S(=O)(=O)c1ccc(-c2ccc(Cl)cc2Cl)cc1 (stereo not drawn) [Compound 339]
7,650 nM,COc1ccccc1CN(CC(=O)NCC1CCCC(CN)C1)S(=O)(=O)c1ccc(-c2ccccc2C)cc1 (stereo not drawn) [Compound 340]
8,570 nM,COc1ccccc1CN(CC(=O)NCC1CCCC(CN)C1)S(=O)(=O)c1ccc(-c2ccccc2Cl)cc1 (stereo not drawn) [Compound 341]
9,530 nM,COc1ccccc1CN(CC(=O)NCC1CCCC(CN)C1)S(=O)(=O)c1ccc(-c2ccc(Cl)cc2Cl)cc1 (stereo not drawn) [Compound 343]
10,700 nM,COc1ccccc1CCN(CC(=O)NCc1cccc(CN)c1)S(=O)(=O)c1ccc(-c2ccccc2C)cc1 [Compound 344]
11,110 nM,COc1ccccc1CCN(CC(=O)NCCCCCCN)S(=O)(=O)c1ccc(-c2ccccc2C)cc1 [Compound 352]
12,140 nM,COc1ccccc1CCN(CC(=O)NCCCCCCN)S(=O)(=O)c1ccc(-c2ccccc2Cl)cc1 [Compound 353]
13,400 nM,COc1ccccc1CCN(CC(=O)NCCCCCCN)S(=O)(=O)c1ccc(-c2ccc(Cl)cc2Cl)cc1 [Compound 355]
14,1020 nM,C[C@@H](CN(CC(=O)N1CCC(C2CCNCC2)CC1)S(=O)(=O)c1ccc(-c2ccccc2Cl)cc1)c1ccccc1 [Compound 367]
15,190 nM,Cc1ccccc1-c1ccc(S(=O)(=O)N(CC(=O)NCC2CCC(CN)CC2)C[C@H](C)c2ccccc2)cc1 (stereo partly drawn) [Compound 372]
16,330 nM,C[C@@H](CN(CC(=O)NCC1CCCC(CN)C1)S(=O)(=O)c1ccc(-c2ccccc2Cl)cc1)c1ccccc1 (stereo partly drawn) [Compound 385]
17,1170 nM,C[C@@H](CN(CC(=O)NCC1CCCC(CN)C1)S(=O)(=O)c1ccc(-c2cccc(F)c2)cc1)c1ccccc1 (stereo partly drawn) [Compound 386]
18,900 nM,C[C@H](CN(CC(=O)NCC1CCCC(CN)C1)S(=O)(=O)c1ccc(-c2ccccc2Cl)cc1)c1ccccc1 (stereo partly drawn) [Compound 388]
19,230 nM,Cc1ccccc1-c1ccc(S(=O)(=O)N(CC(=O)NCc2cccc(CN)c2)C[C@H](C)c2ccccc2)cc1 [Compound 390]
20,50 nM,C[C@@H](CN(CC(=O)NCCCCCCN)S(=O)(=O)c1ccc(-c2ccccc2Cl)cc1)c1ccccc1 [Compound 397]
21,300 nM,COc1ccc(CCN(CC(=O)NCCCCCCN)S(=O)(=O)c2ccc(-c3ccccc3Cl)cc2)cc1 [Compound 502]
